Assay results reported in patent publication JP2011032172A, “酸化ストレス低減剤。” (Mitsubishi Gas Chemical Co Inc, priority 2009, dated 2011).

Columns and labels:
[1] = tested on: hexanoyl-lysine (ヘキサノイルリジン(HEL)); assay: urinary hexanoyl-lysine (HEL) production rate in the same human trial (ELISA); format: in vivo; details: healthy adult men and women 45-65 years; PQQ disodium salt 20 mg hard capsule after breakfast daily, 3 months; urine from same two groups as Example 1; result in words (rate calculated in pmol/kg/hr)
[2] = tested on: 8−OHdG; assay: urinary 8-OHdG production rate in placebo-controlled double-blind parallel-group human trial (ELISA); format: in vivo; details: healthy adult men and women 45-65 years; PQQ disodium salt 20 mg hard capsule after breakfast daily, 3 months; early-morning urine before and at 4, 8, 12 weeks; result in words (rate calculated in ng/kg/hr)

O=C(O)c1cc(C(=O)O)c2c(n1)C(=O)C(=O)c1cc(C(=O)O)[nH]c1-2 [PQQ, ピロロキノリンキノン, 二ナトリウム塩]
HEL production rate [1]: 低下傾向
8−OHdG production rate [2]: 低下傾向
